Experimental data from US11214594B2, “Antimicrobial peptide having synergistic antibacterial effect with antibiotics on multidrug resistant bacteria, and use thereof” (priority 2016, dated 2022).
Values after ≈ are worked out from the molar mass of the structure shown. Where a SMILES comes first, the peptide text is derived from it.

Assays:
MDREC 1238 = type: cell-based, Escherichia coli
How it was run: (§1)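 Each strain is brought to 2×10^6 CFU in nutrient-sufficient Mueller-Hinton medium and dispensed into wells. Peptide solutions, stepwise diluted 2:1 in the same medium, are then added. The minimal concentration preventing growth gives the MIC.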

MDRPA 2002 = type: cell-based, Pseudomonas aeruginosa
How it was run: as §1

MDRPA 2003 = type: cell-based, Pseudomonas aeruginosa
How it was run: as §1

A. baumannii = experiment: microbe, parasite or virus in culture; type: cell-based, Acinetobacter baumannii
How it was run: as §1

MDRAB 12035 [1] = experiment: microbe, parasite or virus in culture; type: cell-based, Acinetobacter baumannii
How it was run: as §1

MDRAB 12036 = type: cell-based, Acinetobacter baumannii
How it was run: as §1

S. typhimurium = experiment: microbe, parasite or virus in culture; type: cell-based, Salmonella typhimurium
How it was run: as §1

MDRST 8007 = experiment: Minimal inhibitory concentration (MIC), single agent; type: cell-based, Salmonella typhimurium; details: agent alone
How it was run: as §1

S. aureus = experiment: microbe, parasite or virus in culture; type: cell-based, Staphylococcus aureus
How it was run: as §1

MRSA 3114 = type: cell-based, Staphylococcus aureus; details: 3114
How it was run: as §1

MRSA 3126 = type: cell-based, Staphylococcus aureus; details: 3126
How it was run: as §1

MDRAB 12035 [2] = experiment: MIC of antibiotic during combined treatment with antimicrobial peptide; type: cell-based, Acinetobacter baumannii
How it was run: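 Strains in MH medium at 2×10^6 CFU/ml were mixed with peptide diluted stepwise (2:1) from its MIC, then antibiotic dilutions in MH medium were added to give the antibiotic MIC. The reversed set-up, peptide titrated against fixed antibiotic, gave the peptide MIC.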

gram-negative bacteria = experiment: MIC, summary statements for gram-negative bacteria; type: cell-based
How it was run: as §1

[3] = peptide treatment concentration 1 μg/ml
[4] = peptide treatment concentration 2 μg/ml
[5] = peptide treatment concentration 4 μg/ml
[6] = peptide treatment concentration 6 μg/ml
[7] = peptide treatment concentration 8 μg/ml
[8] = peptide treatment concentration 16 μg/ml
[9] = peptide treatment concentration 32 μg/ml
[10] = peptide treatment concentration 64 μg/ml

Compound	Minimal inhibitory concentration MIC (MDREC 1238) [µg/mL]	Minimal inhibitory concentration MIC (MDRPA 2002) [µg/mL]	Minimal inhibitory concentration MIC (MDRPA 2003) [µg/mL]	Minimal inhibitory concentration MIC (A. baumannii) [µg/mL]	Peptide MIC, peptide alone (A. baumannii) [µg/mL]	Minimal inhibitory concentration MIC (MDRAB 12035 [1]) [µg/mL]	Peptide MIC, peptide alone (MDRAB 12035 [1]) [µg/mL]	Minimal inhibitory concentration MIC (MDRAB 12036) [µg/mL]	Minimal inhibitory concentration MIC (S. typhimurium) [µg/mL]	Minimal inhibitory concentration MIC (MDRST 8007) [µg/mL]	Minimal inhibitory concentration MIC (S. aureus) [µg/mL]	Minimal inhibitory concentration MIC (MRSA 3114) [µg/mL]	Minimal inhibitory concentration MIC (MRSA 3126) [µg/mL]	Erythromycin MIC during combined treatment with peptide (MDRAB 12035 [2]; [3]) [µg/mL]	Linezolid MIC during combined treatment with peptide (MDRAB 12035 [2]; [3]) [µg/mL]	Vancomycin MIC during combined treatment with peptide (MDRAB 12035 [2]; [3]) [µg/mL]	Erythromycin MIC during combined treatment with peptide (MDRAB 12035 [2]; [4]) [µg/mL]	Linezolid MIC during combined treatment with peptide (MDRAB 12035 [2]; [4]) [µg/mL]	Vancomycin MIC during combined treatment with peptide (MDRAB 12035 [2]; [4]) [µg/mL]	Erythromycin MIC during combined treatment with peptide (MDRAB 12035 [2]; [5]) [µg/mL]	other results
CC[C@H](C)[C@H](NC(=O)[C@H](CCCCN)NC(=O)[C@H](Cc1c[nH]c2ccccc12)NC(=O)[C@@H](N)CCCNC(=N)N)C(=O)N[C@@H](Cc1ccccc1)C(=O)N[C@@H](CCCCN)C(=O)N[C@@H](CCCCN)C(=O)N[C@H](C(=O)N1CCC[C@H]1C(=O)N[C@@H](CCCCN)C(=O)N[C@@H](Cc1ccccc1)C(=O)N[C@@H](CC(C)C)C(=O)N[C@@H](Cc1c[nH]cn1)C(=O)N[C@@H](CO)C(=O)N[C@@H](Cc1c[nH]c2ccccc12)C(=O)N[C@@H](CCCCN)C(=O)N[C@@H](CCCCN)C(=O)N[C@@H](Cc1c[nH]c2ccccc12)C(N)=O)[C@@H](C)CC [PapMA-4, RWK IFK KIP KFL HSW KKW-NH2] (H-RWKIFKKIPKFLHSWKKW-NH2; N-terminus assumed)	32 (≈ 13 µM)	16 (≈ 6.51 µM)	16 (≈ 6.51 µM)	16 (≈ 6.51 µM)	16	16 (≈ 6.51 µM)	16	16 (≈ 6.51 µM)	32 (≈ 13 µM)	32 (≈ 13 µM)	>128	>128	>128	32	>128	>128	16	128	>128	8	Antibacterial activity relative to PapMA-1 (A. baumannii; A. baumannii and antibiotic-resistant strains thereof): 4 times; Linezolid MIC during combined treatment with peptide (MDRAB 12035 [2]; [5]): 64 µg/mL; Vancomycin MIC during combined treatment with peptide (MDRAB 12035 [2]; [5]): 128 µg/mL; Erythromycin MIC during combined treatment with peptide (MDRAB 12035 [2]; [6]): 4 µg/mL; Linezolid MIC during combined treatment with peptide (MDRAB 12035 [2]; [6]): 64 µg/mL; Vancomycin MIC during combined treatment with peptide (MDRAB 12035 [2]; [6]): 64 µg/mL; Erythromycin MIC during combined treatment with peptide (MDRAB 12035 [2]; [7]): 2 µg/mL; Linezolid MIC during combined treatment with peptide (MDRAB 12035 [2]; [7]): 32 µg/mL; Vancomycin MIC during combined treatment with peptide (MDRAB 12035 [2]; [7]): 64 µg/mL; Erythromycin MIC during combined treatment with peptide (MDRAB 12035 [2]; [8]): 0 µg/mL; Linezolid MIC during combined treatment with peptide (MDRAB 12035 [2]; [8]): 0 µg/mL; Vancomycin MIC during combined treatment with peptide (MDRAB 12035 [2]; [8]): 0 µg/mL; Erythromycin MIC during combined treatment with peptide (MDRAB 12035 [2]; [9]): 0 µg/mL; Linezolid MIC during combined treatment with peptide (MDRAB 12035 [2]; [9]): 0 µg/mL; Vancomycin MIC during combined treatment with peptide (MDRAB 12035 [2]; [9]): 0 µg/mL; Erythromycin MIC during combined treatment with peptide (MDRAB 12035 [2]; [10]): 0 µg/mL; Linezolid MIC during combined treatment with peptide (MDRAB 12035 [2]; [10]): 0 µg/mL; Vancomycin MIC during combined treatment with peptide (MDRAB 12035 [2]; [10]): 0 µg/mL; Antibacterial activity (in words) (gram-negative bacteria; gram-negative bacteria): comparable to papiliocin or melittin
CC[C@H](C)[C@H](NC(=O)[C@H](CCCCN)NC(=O)[C@H](Cc1c[nH]c2ccccc12)NC(=O)[C@@H](N)CCCNC(=N)N)C(=O)N[C@@H](Cc1ccccc1)C(=O)N[C@@H](CCCCN)C(=O)N[C@@H](CCCCN)C(=O)N[C@H](C(=O)N1CCC[C@H]1C(=O)N[C@@H](CCCCN)C(=O)N[C@@H](CC(C)C)C(=O)N[C@@H](CC(C)C)C(=O)N[C@@H](Cc1c[nH]cn1)C(=O)N[C@@H](CO)C(=O)N[C@@H](Cc1ccccc1)C(=O)N[C@@H](CCCCN)C(=O)N[C@@H](CCCCN)C(=O)N[C@@H](Cc1ccccc1)C(N)=O)[C@@H](C)CC [PapMA-7, RWK IFK KIP KLL HSF KKF-NH2] (H-RWKIFKKIPKLLHSFKKF-NH2; N-terminus assumed)	64 (≈ 27.3 µM)	16 (≈ 6.83 µM)	16 (≈ 6.83 µM)	16 (≈ 6.83 µM)	16	32 (≈ 13.7 µM)	32	32 (≈ 13.7 µM)	16 (≈ 6.83 µM)	32 (≈ 13.7 µM)	>128	>128	>128	8	64	128	4	32	32	2	Linezolid MIC during combined treatment with peptide (MDRAB 12035 [2]; [5]): 8 µg/mL; Vancomycin MIC during combined treatment with peptide (MDRAB 12035 [2]; [5]): 8 µg/mL; Erythromycin MIC during combined treatment with peptide (MDRAB 12035 [2]; [6]): 0.5 µg/mL; Linezolid MIC during combined treatment with peptide (MDRAB 12035 [2]; [6]): 4 µg/mL; Vancomycin MIC during combined treatment with peptide (MDRAB 12035 [2]; [6]): 4 µg/mL; Erythromycin MIC during combined treatment with peptide (MDRAB 12035 [2]; [7]): 0.125 µg/mL; Linezolid MIC during combined treatment with peptide (MDRAB 12035 [2]; [7]): 2 µg/mL; Vancomycin MIC during combined treatment with peptide (MDRAB 12035 [2]; [7]): 2 µg/mL; Erythromycin MIC during combined treatment with peptide (MDRAB 12035 [2]; [8]): 0.0625 µg/mL; Linezolid MIC during combined treatment with peptide (MDRAB 12035 [2]; [8]): 1 µg/mL; Vancomycin MIC during combined treatment with peptide (MDRAB 12035 [2]; [8]): 1 µg/mL; Erythromycin MIC during combined treatment with peptide (MDRAB 12035 [2]; [9]): 0 µg/mL; Linezolid MIC during combined treatment with peptide (MDRAB 12035 [2]; [9]): 0 µg/mL; Vancomycin MIC during combined treatment with peptide (MDRAB 12035 [2]; [9]): 0 µg/mL; Erythromycin MIC during combined treatment with peptide (MDRAB 12035 [2]; [10]): 0 µg/mL; Linezolid MIC during combined treatment with peptide (MDRAB 12035 [2]; [10]): 0 µg/mL; Vancomycin MIC during combined treatment with peptide (MDRAB 12035 [2]; [10]): 0 µg/mL; Antibacterial activity relative to PapMA-1, PapMA-2, PapMA-3 and PapMA-4 (gram-negative bacteria; most of the gram-negative bacteria): same or higher
